US20220042033A1, “COMPOSITION AND METHOD FOR CONFERRING AND/OR ENHANCING TOLERANCE AGAINST HERBICIDES BY USING VARIANTS OF PPO” (FarmHannong Co., Ltd., priority 2017, published 2022)

Legend:
[1] = molecular target: T1, Myxococcus xanthus MxPPO (SEQ ID NO: 3) variant I168C, fused to MBP (Myxococcus xanthus, UniProt P56601, I168C); test: PPO enzyme inhibition assay (IC50), MBP-fused PPO (Table 15); format: biochemical
T1 construct: For encoding the PPO protein (MxPPO); made in house; host or cells: BL21 CodonPlus(DE3) E. coli
T1 sequence (P56601 whole entry I168C, the tested form may be a part): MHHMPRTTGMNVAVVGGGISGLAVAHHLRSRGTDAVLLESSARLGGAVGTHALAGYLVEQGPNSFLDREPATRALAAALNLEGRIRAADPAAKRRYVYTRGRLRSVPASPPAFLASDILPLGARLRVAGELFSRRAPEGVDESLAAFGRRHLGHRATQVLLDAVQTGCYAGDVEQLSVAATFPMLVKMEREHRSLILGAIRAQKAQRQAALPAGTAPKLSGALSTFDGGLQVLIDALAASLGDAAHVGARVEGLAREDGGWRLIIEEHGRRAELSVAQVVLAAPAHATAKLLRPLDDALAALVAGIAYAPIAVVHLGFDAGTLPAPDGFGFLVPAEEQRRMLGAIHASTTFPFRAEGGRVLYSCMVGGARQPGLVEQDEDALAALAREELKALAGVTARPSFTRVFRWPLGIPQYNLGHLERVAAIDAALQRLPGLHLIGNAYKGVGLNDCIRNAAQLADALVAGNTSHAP

[2] = molecular target: T2, Myxococcus xanthus MxPPO (SEQ ID NO: 3) variant R95A, fused to MBP (Myxococcus xanthus, UniProt P56601, R95A); test: biochemical
T2 construct: For encoding the PPO protein (MxPPO); made in house; host or cells: BL21 CodonPlus(DE3) E. coli
T2 sequence (P56601 whole entry R95A, the tested form may be a part): as the sequence (P56601 whole entry I168C, the tested form may be a part) above, with R95A, C168I counted along it

[3] = molecular target: Auxenochlorella protothecoides ApPPO1 (SEQ ID NO: 1) variant V213C, fused to MBP (Auxenochlorella protothecoides, UniProt A0A087SQM0, V213C); test: biochemical
Chain of Auxenochlorella protothecoides ApPPO1 (SEQ ID NO: 1) variant V213C, fused to MBP (A0A087SQM0 entry or part of it V213C): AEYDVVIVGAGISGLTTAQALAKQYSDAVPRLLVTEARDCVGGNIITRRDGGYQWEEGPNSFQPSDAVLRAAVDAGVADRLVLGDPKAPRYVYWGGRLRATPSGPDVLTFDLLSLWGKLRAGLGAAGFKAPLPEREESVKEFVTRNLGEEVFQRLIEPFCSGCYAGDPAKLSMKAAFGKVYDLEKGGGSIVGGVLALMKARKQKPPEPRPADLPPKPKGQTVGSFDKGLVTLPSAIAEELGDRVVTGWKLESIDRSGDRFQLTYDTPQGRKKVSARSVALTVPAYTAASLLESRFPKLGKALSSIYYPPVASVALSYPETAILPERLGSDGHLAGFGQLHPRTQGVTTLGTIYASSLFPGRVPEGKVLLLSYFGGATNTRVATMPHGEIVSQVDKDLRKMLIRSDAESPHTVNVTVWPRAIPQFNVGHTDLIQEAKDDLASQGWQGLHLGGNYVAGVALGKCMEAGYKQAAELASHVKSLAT
Protocol: (§1) Thus, PPO proteins of wild type and variants were expressed as fused to MBP and were used for experiments.
(§2) The following process for purification of PPO protein was performed in a 4° C. cold room. […] The column was washed with 3 column volumes of buffer and the presence of protein in the washing solution was examined. When the protein was no longer detected, the washing procedure was terminated. Then, the MBP-PPO protein was eluted with approximately 2 column volumes of buffer containing 20 mM maltose. The protein concentration of each eluent was determined and the elution was stopped when the protein was no longer detected. Ten microliter of each fraction was investigated for protein quantification and SDS-PAGE analysis. […]
(§3) Hundred and eighty microliters of a reaction mixture containing the purified PPO protein were placed in 96 well plates and 20 μl of purified PPO proteins were added. […] The reaction proceeded at room temperature for 30 min and the fluorescence of protoporphyrin IX was measured using Microplate reader (Sense, Hidex) (excitation: 405 nm; emission: 633 nm). […] To this, 2.7 N HCl was added, and the absorbance at 408 nm was measured. A standard curve was generated using standard protoporphyrin IX, and PPO activity was measured by calibration of protoporphyrin IX using the standard curve of protoporphyrin IX.

[4] = tested on: E. coli BT3(ΔPPO) transformed with Auxenochlorella protothecoides ApPPO1 (SEQ ID NO: 1) variant Y422C (YC); test: Herbicide tolerance test in PPO-deficient E. coli BT3(ΔPPO), growth on plates; format: cell-based; settings: Table 7, light, 37° C., 16 to 20 hours, vs wild type at highest herbicide concentration
Protocol: (§4) The mutated CyPPO gene obtained from the Example 2 was transformed to BT3 (ΔPPO) strain which is deficient of PPO activity and cultured in LB media with PPO-inhibiting herbicide, thereby examining whether growth of transformed BT3 was not inhibited.
(§5) BT3 competent cells were transformed with the pET303-ApPPO1 and pET303-MxPPO plasmids and those with a mutation(s) constructed in Example 2 respectively, and were cultured in LB agar media containing carbenicillin (Gold Biotechnology, Co., Ltd.).
(§6) Single colony of E. coli transformed with each CyPPO gene was cultured in 3 ml of LB broth containing carbenicillin overnight, and then was subcultured until absorbance (OD600) reached 0.5 to 1. Then, it was diluted with LB broth to OD600=0.5. Again, the diluted solution was serially diluted 4 times by a factor of one tenth.
(§7) The LB agar media (LB 25 g/l, Bacto agar 15 g/l) containing carbenicillin (100 μg/ml) and 0 to 4,000 μM of various herbicides dissolved in DMSO was prepared. Next, 10 μl of each diluted solution was dropped on the plate and cultured at 37° C. under light (Tables 7, 9 and 10, FIGS. 2 to 6, 13 to 20) or dark (Tables 8 and 11, FIGS. 7 to 12, 21 to 24) for 16 to 20 hours. Then, the extent of tolerance was evaluated.
(§8) The extent of herbicide tolerance of the ApPPO1 or MxPPO mutated genes was evaluated by comparing that of mutated genes with that of ApPPO1 or MxPPO wild type. The relative tolerance was represented with “+” as a factor of 10 times.
(§9) In Tables 7 to 11, tolerance level was presented as ‘−’ of tolerance of wild type and of variants equivalent to that of wild type, and was done as ‘+’ per each 10 fold resistance until ‘+++++’ as maximal resistance. […] A dilution series (OD600=0.5, 0.05, 0.005, 0.0005, 0.00005) was made and spotted on LB agar plates supplemented with herbicides.

[5] = molecular target: Auxenochlorella protothecoides ApPPO1 (SEQ ID NO: 1) variant R140A, fused to MBP (Auxenochlorella protothecoides, UniProt A0A087SQM0, R140A); test: PPO enzyme inhibition assay (IC50), MBP-fused PPO; format: biochemical
Chain of Auxenochlorella protothecoides ApPPO1 (SEQ ID NO: 1) variant R140A, fused to MBP (A0A087SQM0 entry or part of it R140A): as the sequence (A0A087SQM0 entry or part of it V213C) above, with R90A, C163V counted along it
Protocol: as §1, §2, §3

[6] = tested on: E. coli BT3(ΔPPO) transformed with Auxenochlorella protothecoides ApPPO1 (SEQ ID NO: 1) variant Y422T (YT); test: Herbicide tolerance test in PPO-deficient E. coli BT3(ΔPPO), growth on plates; format: cell-based; settings: Table 7, light, 37° C., 16 to 20 hours, vs wild type at highest herbicide concentration
Protocol: as §4, §5, §6, §7, §8, §9

[7] = tested on: wild type A. thaliana (Col-0 ecotype); test: Herbicide spray test on 4-week-old plants, wild type; format: in vivo, Arabidopsis thaliana; settings: 100 ml of 1 μM tiafenacil and 0.05% Silwet L-77 per 0.24 m^2; within 7 days
Protocol: In order to examine PPO-inhibiting herbicide tolerance of the transgenic plants, 4-week-old plants were evenly sprayed with herbicide (100 ml of 1 μM tiafenacil and 0.05% Silwet L-77 (v/v)) in 40×60 cm area (0.24 m^2).

[8] = tested on: E. coli BT3(ΔPPO) transformed with Auxenochlorella protothecoides ApPPO1 (SEQ ID NO: 1) variant Y422I (YI); format: cell-based; settings: Table 7, light, 37° C., 16 to 20 hours, vs wild type at highest herbicide concentration
Protocol: as §4, §5, §6, §7, §8, §9

[9] = molecular target: T3, Myxococcus xanthus MxPPO (SEQ ID NO: 3) variant F329V, fused to MBP (Myxococcus xanthus, UniProt P56601, F329V); test: PPO enzyme inhibition assay (IC50), MBP-fused PPO (Table 15); format: biochemical
T3 construct: For encoding the PPO protein (MxPPO); made in house; host or cells: BL21 CodonPlus(DE3) E. coli
T3 sequence (P56601 whole entry F329V, the tested form may be a part): as the sequence (P56601 whole entry I168C, the tested form may be a part) above, with C168I, F329V counted along it
Protocol: as §1
(§10) In order to express wild type and variant proteins of ApPPO1 and MxPPO, those genes were introduced into pMAL-c2x vector (refer to FIG. 25), respectively.
as §2
(§11) Hundred and eighty microliters of a reaction mixture containing the purified PPO protein were placed in 96 well plates and 20 μl of purified PPO proteins were added. […] The reaction proceeded at room temperature for 30 min and the fluorescence of protoporphyrin IX was measured using Microplate reader (Sense, Hidex) (excitation: 405 nm; emission: 633 nm). […] To this, 2.7 N HCl was added, and the absorbance at 408 nm was measured. […]

[10] = molecular target: Auxenochlorella protothecoides ApPPO1 (SEQ ID NO: 1) variant L389T, fused to MBP (Auxenochlorella protothecoides, UniProt A0A087SQM0, L389T); test: PPO enzyme inhibition assay (IC50), MBP-fused PPO; format: biochemical
Chain of Auxenochlorella protothecoides ApPPO1 (SEQ ID NO: 1) variant L389T, fused to MBP (A0A087SQM0 entry or part of it L389T): as the sequence (A0A087SQM0 entry or part of it V213C) above, with C163V, L339T counted along it

[11] = tested on: E. coli BT3(ΔPPO) transformed with Myxococcus xanthus MxPPO (SEQ ID NO: 3) variant A170C; test: Herbicide tolerance test in PPO-deficient E. coli BT3(ΔPPO), growth on plates; format: cell-based; settings: Table 9, light, tiafenacil to 2000 μM, saflufenacil to 200 μM, flumioxazin to 100 μM
Protocol: as §4, §5, §6, §7
(§12) The extent of herbicide tolerance of the ApPPO1 or MxPPO mutated genes was evaluated by comparing that of mutated genes with that of ApPPO1 or MxPPO wild type. […]

[12] = tested on: E. coli BT3(ΔPPO) transformed with Auxenochlorella protothecoides ApPPO1 (SEQ ID NO: 1) variant Y422M (YM); test: as above; format: cell-based; settings: Table 7, light, 37° C., 16 to 20 hours, vs wild type at highest herbicide concentration
Protocol: as §4, §5, §6, §7, §8, §9

[13] = tested on: E. coli BT3(ΔPPO) transformed with Myxococcus xanthus MxPPO (SEQ ID NO: 3) variant I311M; test: as above; format: cell-based; settings: Table 9, light, tiafenacil to 2000 μM, saflufenacil to 200 μM, flumioxazin to 100 μM
Protocol: as §4, §5, §6, §7, §12

[14] = molecular target: Auxenochlorella protothecoides ApPPO1 (SEQ ID NO: 1) variant A215C, fused to MBP (Auxenochlorella protothecoides, UniProt A0A087SQM0, A215C); test: PPO enzyme inhibition assay (IC50), MBP-fused PPO; format: biochemical
Chain of Auxenochlorella protothecoides ApPPO1 (SEQ ID NO: 1) variant A215C, fused to MBP (A0A087SQM0 entry or part of it A215C): as the sequence (A0A087SQM0 entry or part of it V213C) above, with C163V, A165C counted along it
Protocol: as §1, §2, §3

[15] = tested on: transgenic A. thaliana transformed with ApPPO1 variants, MxPPO or MxPPO variants; test: Herbicide spray test on 4-week-old plants, transgenic; format: in vivo, Arabidopsis thaliana; settings: 100 ml of 1 μM tiafenacil and 0.05% Silwet L-77 per 0.24 m^2
From the text: A. thaliana was transformed with a binary vector having ORF of a selectable marker, Bar gene (glufosinate-tolerant gene), and ORF of each gene of ApPPO1 variants, MxPPO, and MxPPO variants. The transgenic plant was examined for cross-tolerance towards glufosinate and PPO-inhibiting herbicides. The bar gene was also used to examine whether the transgene was stably inherited during generations. NOS promoter and E9 terminator were used for bar gene expression.
In order to express proteins of ApPPO1 variants, MxPPO, and MxPPO variants in plants, a CaMV35S promoter and a NOS terminator were used. Encoding genes of ApPPO1 variants, MxPPO, and MxPPO variants were introduced into binary vector using XhoI and BamHI restriction enzymes. Furthermore, for confirmation of the protein expression, hemagglutinin (HA) tag was fused to the C-terminal region of PPO protein coding gene using BamHI and SacI restriction enzymes. […]
Each transformed Agrobacterium was screened in spectinomycin-containing LB media. […] After Agrobacterium cell was harvested from the culture media, it was resuspended in the solution containing 5% sucrose (w/v) and 0.05% Silwet L-77 (v/v) (Momentive Performance Materials Co., Ltd.) at an absorbance (OD600) of 0.8. […]

[16] = molecular target: T4, Myxococcus xanthus MxPPO (SEQ ID NO: 3) variant A170C, fused to MBP (Myxococcus xanthus, UniProt P56601, A170C); test: PPO enzyme inhibition assay (IC50), MBP-fused PPO (Table 15); format: biochemical
T4 construct: made in house; host or cells: BL21 CodonPlus(DE3) E. coli
T4 sequence (P56601 whole entry A170C, the tested form may be a part): as the sequence (P56601 whole entry I168C, the tested form may be a part) above, with C168I, A170C counted along it
Protocol: as §1, §10, §2, §11

[17] = molecular target: Auxenochlorella protothecoides ApPPO1 (SEQ ID NO: 1) variant V360M, fused to MBP (Auxenochlorella protothecoides, UniProt A0A087SQM0, V360M); test: PPO enzyme inhibition assay (IC50), MBP-fused PPO; format: biochemical
Chain of Auxenochlorella protothecoides ApPPO1 (SEQ ID NO: 1) variant V360M, fused to MBP (A0A087SQM0 entry or part of it V360M): as the sequence (A0A087SQM0 entry or part of it V213C) above, with C163V, V310M counted along it

COC(=O)CCNC(=O)C(C)Sc1cc(-n2c(=O)cc(C(F)(F)F)n(C)c2=O)c(F)cc1Cl (centres unmarked) [tiafenacil]
IC50 [1]: 550 nM | IC50 [2]: 2370 nM | IC50 [3]: 81 nM | relative herbicide tolerance level [4]: ++ (10-99 fold higher tolerance) | IC50 [5]: 86 nM | relative herbicide tolerance level [6]: ++ (10-99 fold higher tolerance) | plant damage after spraying [7]: completely died within 7 days after treatment | relative herbicide tolerance level [8]: ++ (10-99 fold higher tolerance) | IC50 [9]: 239 nM | IC50 [10]: 716 nM | relative herbicide tolerance level [11]: + (1-9 fold higher tolerance) | relative herbicide tolerance level [12]: +++ (100-999 fold higher tolerance) | relative herbicide tolerance level [13]: ++ (10-99 fold higher tolerance) | IC50 [14]: 76 nM | plant damage after spraying [15]: no damage | IC50 [16]: 1680 nM | IC50 [17]: 75 nM
